# Reference: US7855213B2 (AstraZeneca AB, priority 2006, dated 2010)
# Where a name gives a salt, the structure may show the parent alone.
# Target: T1, human β-Secretase (Homo sapiens, UniProt P56817)
# T1 construct: The soluble part of the human β-Secretase (AA 1-AA 460) was cloned; made in house
# Assay: TR-FRET assay
# Assay type: biochemical
# T1 sequence (P56817 22-460): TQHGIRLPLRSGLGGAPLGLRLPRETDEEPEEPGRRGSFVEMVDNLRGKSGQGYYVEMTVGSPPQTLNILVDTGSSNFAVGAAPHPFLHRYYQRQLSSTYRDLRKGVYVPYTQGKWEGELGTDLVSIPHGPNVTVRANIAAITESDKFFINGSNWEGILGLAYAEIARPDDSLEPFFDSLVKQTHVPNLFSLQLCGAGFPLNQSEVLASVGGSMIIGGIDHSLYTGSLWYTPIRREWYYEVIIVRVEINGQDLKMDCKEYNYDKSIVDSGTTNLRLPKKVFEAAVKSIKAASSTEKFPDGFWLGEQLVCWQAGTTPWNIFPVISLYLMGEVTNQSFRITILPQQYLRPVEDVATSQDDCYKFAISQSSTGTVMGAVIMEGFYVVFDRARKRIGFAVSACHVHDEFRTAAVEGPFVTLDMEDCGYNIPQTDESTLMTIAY
row,Compound,IC50
1,"NC1=NC(c2ccccc2)(c2ccccc2)c2ccccc21 [Example 1, 3,3-Diphenyl-3H-isoindol-1-ylamine]",9140 nM
2,"COc1ccc(C2(c3ccc(OS(=O)(=O)C(F)(F)F)c(-c4cccc(OC)c4)c3)N=C(N)c3ccccc32)cc1 (stereo not drawn) [Example 3, Trifluoro-methanesulfonic acid 5-[3-amino-1-(4-methoxy-phenyl)-1H-isoindol-1-yl]-3′-methoxy-biphenyl-2-yl ester trifluoroacetate]",12000 nM
3,"COc1ccc(C2(c3ccc(O)c(-c4cccc(OC)c4)c3)N=C(N)c3ccccc32)cc1 (stereo not drawn) [Example 4, 5-[3-Amino-1-(4-methoxy-phenyl)-1H-isoindol-1-yl]-3′-methoxy-biphenyl-2-ol trifluoroacetate]",67 nM
4,"NC1=NC(c2ccc(O)cc2)(c2ccc(O)cc2)c2ccccc21 [Example 6, 4,4′-(3-Amino-isoindole-1,1-diyl)-bis-phenol]",3520 nM
5,"COc1ccc(C2(c3ccc(O)c(-c4cccnc4)c3)N=C(N)c3ccccc32)cc1 (stereo not drawn) [Example 7, 4-[3-Amino-1-(4-methoxy-phenyl)-1H-isoindol-1-yl]-2-pyridin-3-yl-phenol trifluoroacetate]",86 nM
6,"COc1ccc(C2(c3ccc(O)c(-c4cncnc4)c3)N=C(N)c3ccccc32)cc1 (stereo not drawn) [Example 8, 4-[3-Amino-1-(4-methoxy-phenyl)-1H-isoindol-1-yl]-2-pyrimidin-5-yl-phenol trifluoroacetate]",40 nM
7,"COc1ccc(C2(c3cccc(-c4cccnc4F)c3)N=C(N)c3ccccc32)cc1 (stereo not drawn) [Example 10, 3-[3-(2-Fluoro-pyridin-3-yl)-phenyl]-3-(4-methoxy-phenyl)-3H-isoindol-1-ylamine trifluoroacetate]",78 nM
8,"COc1ccc(C2(c3cccc(-c4cncc(OC)c4)c3)N=C(N)c3ccccc32)cc1 (stereo not drawn) [Example 12, 3-(4-Methoxy-phenyl)-3-[3-(5-methoxy-pyridin-3-yl)-phenyl]-3H-isoindol-1-ylamine trifluoroacetate]",68 nM
9,"COc1ccc(C2(c3cccc(-c4cncnc4)c3)N=C(N)c3ccccc32)cc1 (stereo not drawn) [Example 13, 3-(4-Methoxy-phenyl)-3-(3-pyrimidin-5-yl-phenyl)-3H-isoindol-1-ylamine trifluoroacetate]",106 nM
10,"COc1ccc(C2(c3cccc(-c4cc(OC)cc(OS(C)(=O)=O)c4)c3)N=C(N)c3ccccc32)cc1 (stereo not drawn) [Example 14, Methanesulfonic acid 3′-[3-amino-1-(4-methoxy-phenyl)-1H-isoindol-1-yl]-5-methoxy-biphenyl-3-yl ester trifluoroacetate]",153 nM
11,"NC1=NC(c2cccc(-c3cccnc3F)c2)(c2ccc3c(c2)OCCO3)c2ccccc21 (stereo not drawn) [Example 15, 3-(2,3-Dihydrobenzo[b][1,4]dioxin-6-yl)-3-(3-(2-fluoropyridin-3-yl)phenyl)-3H-isoindol-1-amine trifluoroacetate]",748 nM
12,"NC1=NC(c2cccc(-c3cncnc3)c2)(c2ccc3c(c2)OCCO3)c2ccccc21 (stereo not drawn) [Example 18, 3-(2,3-Dihydrobenzo[b][1,4]dioxin-6-yl)-3-(3-(pyrimidin-5-yl)phenyl)-3H-isoindol-1-amine trifluoroacetate]",593 nM
13,"COc1ccc(C2(c3cccc(Br)c3)N=C(N)c3ccccc32)cc1C (stereo not drawn) [Example 19, 3-(3-Bromo-phenyl)-3-(4-methoxy-3-methyl-phenyl)-3H-isoindol-1-ylamine trifluoroacetate]",1360 nM
14,"COc1cncc(-c2cccc(C3(c4ccc(OC)c(C)c4)N=C(N)c4ccccc43)c2)c1 (stereo not drawn) [Example 21, 3-(4-Methoxy-3-methyl-phenyl)-3-[3-(5-methoxy-pyridin-3-yl)-phenyl]-3H-isoindol-1-ylamine trifluoroacetate]",42 nM
15,"COc1ccc(C2(c3cccc(-c4cccnc4)c3)N=C(N)c3ccccc32)cc1C (stereo not drawn) [Example 22, 3-(4-Methoxy-3-methyl-phenyl)-3-(3-pyridin-3-yl-phenyl)-3H-isoindol-1-ylamine trifluoroacetate]",145 nM
16,"COc1ccc(C2(c3cccc(-c4cncnc4)c3)N=C(N)c3ccccc32)cc1C (stereo not drawn) [Example 23, 3-(4-Methoxy-3-methyl-phenyl)-3-(3-pyrimidin-5-yl-phenyl)-3H-isoindol-1-ylamine trifluoroacetate]",88 nM
17,"COc1ccc(C2(c3cccc(-c4cccnc4F)c3)N=C(N)c3ccccc32)cc1C (stereo not drawn) [Example 24, 3-[3-(2-Fluoro-pyridin-3-yl)-phenyl]-3-(4-methoxy-3-methyl-phenyl)-3H-isoindol-1-ylamine trifluoroacetate]",54 nM
18,"COc1cc(OS(C)(=O)=O)cc(-c2cccc(C3(c4ccc(OC)c(C)c4)N=C(N)c4ccccc43)c2)c1 (stereo not drawn) [Example 25, Methanesulfonic acid 3′-[3-amino-1-(4-methoxy-3-methyl-phenyl)-1H-isoindol-1-yl]-5-methoxy-biphenyl-3-yl ester trifluoroacetate]",86 nM
19,"CS(=O)(=O)Oc1ccc(C2(c3cccc(-c4cccnc4)c3)N=C(N)c3ccccc32)cc1 (stereo not drawn) [Example 35, Methanesulfonic acid 4-[3-amino-1-(3-pyridin-3-yl-phenyl)-1H-isoindol-1-yl]-phenyl ester trifluoroacatete]",950 nM
20,"CS(=O)(=O)Oc1ccc(C2(c3cccc(-c4cccnc4F)c3)N=C(N)c3ccccc32)cc1 (stereo not drawn) [Example 37, Methanesulfonic acid 4-{3-amino-1-[3-(2-fluoro-pyridin-3-yl)-phenyl]-1H-isoindol-1-yl}-phenyl ester trifluoroacetate]",569 nM
21,"CS(=O)(=O)Oc1ccc(C2(c3cccc(-c4cncnc4)c3)N=C(N)c3ccccc32)cc1 (stereo not drawn) [Example 38, Methanesulfonic acid 4-[3-amino-1-(3-pyrimidin-5-yl-phenyl)-1H-isoindol-1-yl]-phenyl ester trifluoroacetate]",706 nM
22,"COc1cncc(-c2cccc(C3(c4ccc(OS(C)(=O)=O)cc4)N=C(N)c4ccccc43)c2)c1 (stereo not drawn) [Example 39, Methanesulfonic acid 4-{3-amino-1-[3-(5-methoxy-pyridin-3-yl)-phenyl]-1H-isoindol-1-yl}-phenyl ester trifluoroacetate]",350 nM

# Other lines, results leading:
row,IC50,Compound
1,110 nM,"COc1ccc(C2(c3cccc(-c4cccc(OC)c4)c3)N=C(N)c3ccccc32)cc1 (stereo not drawn) [Example 2, 3-(3′-Methoxy-biphenyl-3-yl)-3-(4-methoxy-phenyl)-3H-isoindol-1-ylamine trifluoroacetate]"
2,154 nM,"COc1ccc(C2(c3cccc(-c4cccnc4)c3)N=C(N)c3ccccc32)cc1 (stereo not drawn) [Example 9, 3-(4-Methoxy-phenyl)-3-(3-pyridin-3-yl-phenyl)-3H-isoindol-1-ylamine trifluoroacetate]"
3,425 nM,"COc1cncc(-c2cccc(C3(c4ccc5c(c4)OCCO5)N=C(N)c4ccccc43)c2)c1 (stereo not drawn) [Example 16, 3-(2,3-Dihydrobenzo[b][1,4]dioxin-6-yl)-3-(3-(5-methoxypyridin-3-yl)phenyl)-3H-isoindol-1-amine trifluoroacetate]"
4,1520 nM,"NC1=NC(c2cccc(-c3cccnc3)c2)(c2ccc3c(c2)OCCO3)c2ccccc21 (stereo not drawn) [Example 17, 3-(2,3-Dihydrobenzo[b][1,4]dioxin-6-yl)-3-(3-(pyridin-3-yl)phenyl)-3H-isoindol-1-amine trifluoroacetate]"
5,101 nM,"COc1cccc(-c2cccc(C3(c4ccc(OC)c(C)c4)N=C(N)c4ccccc43)c2)c1 (stereo not drawn) [Example 20, 3-(3′-Methoxy-biphenyl-3-yl)-3-(4-methoxy-3-methyl-phenyl)-3H-isoindol-1-ylamine trifluoroacetate]"
6,1280 nM,"COc1cc(OS(C)(=O)=O)cc(-c2cccc(C3(c4ccc5c(c4)OCCO5)N=C(N)c4ccccc43)c2)c1 (stereo not drawn) [Example 26, 5′-(3-Amino-1-(2,3-dihydrobenzo[b][1,4]dioxin-6-yl)-1H-isoindol-1-yl)-5-methoxybiphenyl-3-yl methanesulfonate trifluoroacetate]"
7,1060 nM,"COc1cccc(-c2cccc(C3(c4ccc5c(c4)OCCO5)N=C(N)c4ccccc43)c2)c1 (stereo not drawn) [Example 27, 3-(2,3-Dihydrobenzo[b][1,4]dioxin-6-yl)-3-(3′-methoxybiphenyl-3-yl)-3H-isoindol-1-amine trifluoroacetate]"
8,1610 nM,"NC1=NC(c2cccc(-c3cccnc3)c2)(c2ccc3c(c2)OCO3)c2ccccc21 (stereo not drawn) [Example 28, 3-Benzo[1,3]dioxol-5-yl-3-(3-pyridin-3-yl)-3H-isoindol-1-ylamine trifluoroacetate]"
9,942 nM,"NC1=NC(c2cccc(-c3cncnc3)c2)(c2ccc3c(c2)OCO3)c2ccccc21 (stereo not drawn) [Example 30, 3-Benzo[1,3]dioxol-5-yl-3-(3-pyrimidin-5-ylphenyl)-3H-isoindol-1-ylamine trifluoroacetate]"
10,768 nM,"NC1=NC(c2cccc(-c3cccnc3F)c2)(c2ccc3c(c2)OCO3)c2ccccc21 (stereo not drawn) [Example 31, 3-Benzo[1,3]dioxol-5-yl-3-[3-(2-fluoropyridin-3-yl)-phenyl]-3H-isoindol-1-ylamine trifluoroacetate]"
11,708 nM,"COc1cncc(-c2cccc(C3(c4ccc5c(c4)OCO5)N=C(N)c4ccccc43)c2)c1 (stereo not drawn) [Example 32, 3-Benzo[1,3]dioxol-5-yl-3-[3-(5-methoxy-pyridin-3-yl)-phenyl]3H isoindol-1-ylamine trifluoroacetate]"
12,1330 nM,"COc1cccc(-c2cccc(C3(c4ccc5c(c4)OCO5)N=C(N)c4ccccc43)c2)c1 (stereo not drawn) [Example 33, 3-Benzo[1,3]dioxol-5-yl-3-(3′-methoxy-biphenyl-3-yl)-3H-isoindol-1-ylamine trifluoroacetate]"
13,1090 nM,"COc1cc(OS(C)(=O)=O)cc(-c2cccc(C3(c4ccc5c(c4)OCO5)N=C(N)c4ccccc43)c2)c1 (stereo not drawn) [Example 34, Methanesulfonic acid 3′-(3-amino-1-benzo[1,3]dioxol-5-yl-1H-isoindol-1-yl)-5-methoxy-biphenyl-3-yl ester trifluoroacetate]"
14,570 nM,"COc1cccc(-c2cccc(C3(c4ccc(OS(C)(=O)=O)cc4)N=C(N)c4ccccc43)c2)c1 (stereo not drawn) [Example 40, Methanesulfonic acid 4-[3-amino-1-(3′-methoxy-biphenyl-3-yl)-1H-isoindol-1-yl]-phenyl ester trifluoroaceate]"
